Results on two compounds are retold here after patent US11957701B2, “Therapy and new therapeutic agent for blood cancer” (Delta-Fly Pharma, Inc., priority 2020, dated 2024).

Where a name gives a salt, the structure may show the parent alone. Read-outs that look alike come from different tables or passages of the source.

In this assay the test system is MV4-11. The assay can be described thus: Combined use under low protein content, MTT assay after 48 hours. It is filed as cell-based, human. The settings on record: MV4-11, low protein content. A general note: Tetrazolium assays rely on reduction of a dye to a coloured formazan, in cell work by metabolically active cells.

One may read the IC50 as the concentration at which inhibition is half-maximal. Turning to `N#C[C@H]1[C@H](O)[C@@H](CO)O[C@H]1n1ccc(N)nc1=O` [DFP-10917, 4-amino-1-(2-cyano-2-deoxy-β-D-arabinofuranosyl)-2(1H)-pyrimidinone monohydrochloride], the IC50 (Homo sapiens, read-out: IC50 value of DFP-10917 alone) was 1530 nM.

As for venetoclax, the IC50 (read-out: IC50 value of venetoclax alone) stood at 0.0968 nM.
